From paper PMC10331583, “Control of fibrosis with enhanced safety via asymmetric inhibition of prolyl‐tRNA synthetase 1” (EMBO Molecular Medicine, 2023)
“And” between values parts separate entries of the source, which are not always exact repeats. Equal entries are not always repeated. Where two headings read alike, the source gives them in different places.

Tests used:
[1] = test system: WI‐26 VA4 cells; test: CellTiter‐Glo assay (cytotoxicity)
Procedure: After 24 h, the cells were incubated with various concentrations of compounds for 48 h. The level of ATP as a measure of cell viability was determined using a CellTiter‐Glo® luminescent cell viability assay kit (Promega, G7571) following the manufacturer's instructions.
WI‐26 VA4 cells were seeded at 1.2 × 10^4 cells/well in 96‐well white plates. After 24 h, the cells were incubated with the indicated concentrations of compounds for 72 h. The viability was determined as described above.

[2] = test system: WI‐26 VA4 cells; test: Collagen ELISA (secreted pro‐collagen I); details: for IC50 / activity at 0.01 µM / activity at 300 µM / activity at 0.03 µM / activity at 0.1 µM / activity at 0.3 µM / activity at 1 µM / activity at 3 µM / activity at 10 µM / activity at 30 µM / activity at 100 µM: Homo sapiens
[3] = log(inhibitor) vs. response, variable slope (four parameters), concentration in nM

## O[C@H]1CCCN[C@@H]1CCCn1cnc2c(Cl)c(Cl)ccc21 [DWN12088]
[1]; Homo sapiens, WI26VA4, read-out: CellTiter-Glo % of control, 10000 nM, Experiment #1, replicates
  activity at 10 µM: 71.7%
[1]; Homo sapiens, WI26VA4, read-out: CellTiter-Glo % of control, 10000 nM, Experiment #2, replicates
  activity at 10 µM: 92%
[1]; Homo sapiens, WI26VA4, read-out: CellTiter-Glo % of control, 30000 nM, Experiment #1, replicates
  activity at 30 µM: 34.8%
[1]; Homo sapiens, WI26VA4, read-out: CellTiter-Glo % of control, 30000 nM, Experiment #2, replicates
  activity at 30 µM: 38.4%
[1]; Homo sapiens, WI26VA4, read-out: CellTiter-Glo % of control, 100000 nM, Experiment #1, replicates
  activity at 100 µM: 26.4%
[1]; Homo sapiens, WI26VA4, read-out: CellTiter-Glo % of control, 100000 nM, Experiment #2, replicates
  activity at 100 µM: 20.9%
[1]; Homo sapiens, WI26VA4, read-out: CellTiter-Glo % of control, average, 10 nM, average
  activity at 0.01 µM: 104%
[1]; Homo sapiens, WI26VA4, read-out: CellTiter-Glo % of control, average, 30 nM, average
  activity at 0.03 µM: 104%
[1]; Homo sapiens, WI26VA4, read-out: CellTiter-Glo % of control, average, 100 nM, average
  activity at 0.1 µM: 109%
[1]; Homo sapiens, WI26VA4, read-out: CellTiter-Glo % of control, average, 300 nM, average
  activity at 0.3 µM: 108%
[1]; Homo sapiens, WI26VA4, read-out: CellTiter-Glo % of control, average, 1000 nM, average
  activity at 1 µM: 102%
[1]; Homo sapiens, WI26VA4, read-out: CellTiter-Glo % of control, average, 3000 nM, average
  activity at 3 µM: 84.7%
[1]; Homo sapiens, WI26VA4, read-out: CellTiter-Glo % of control, average, 10000 nM, average
  activity at 10 µM: 77.5%
[1]; Homo sapiens, WI26VA4, read-out: CellTiter-Glo % of control, average, 30000 nM, average
  activity at 30 µM: 34.6%
[1]; Homo sapiens, WI26VA4, read-out: CellTiter-Glo % of control, average, 100000 nM, average
  activity at 100 µM: 22.4%
[1]; Homo sapiens, WI26VA4, read-out: CellTiter-Glo % of control, average, 300000 nM, average
  activity at 300 µM: 1.88%
[1]; Homo sapiens, WI26VA4, read-out: CellTiter-Glo % of control, average, 1000000 nM, average
  activity at 1000 µM: 0.11%
[1]; [3]
  CellTiter-Glo LogIC50 (best-fit value): 4.308
[2]; 10 nM, 0.01 µM
  Collagen, % of control (single replicates per experiment): 101.76 % of control
[2]; 30 nM, 0.03 µM
  Collagen, % of control (single replicates per experiment): 120.03 % of control and 114.52 % of control and 91.73 % of control and 89.16 % of control and 97.48 % of control and 99.13 % of control and 133.18 % of control and 134.10 % of control
[2]; 100 nM, 0.1 µM
  Collagen, % of control (single replicates per experiment): 111.05 % of control and 113.92 % of control and 88.23 % of control and 93.03 % of control and 102.46 % of control and 102.99 % of control and 133.45 % of control and 119.32 % of control
[2]; 300 nM, 0.3 µM
  Collagen, % of control (single replicates per experiment): 97.76 % of control and 92.78 % of control and 92.20 % of control and 87.32 % of control and 95.43 % of control and 105.10 % of control and 105.64 % of control and 109.03 % of control
[2]; 1000 nM, 1 µM
  Collagen, % of control (single replicates per experiment): 75.49 % of control and 75.29 % of control and 77.13 % of control and 68.65 % of control and 66.58 % of control and 66.40 % of control and 103.27 % of control and 103.19 % of control
[2]; 3000 nM, 3 µM
  Collagen, % of control (single replicates per experiment): 24.90 % of control and 21.92 % of control
[2]; Fig 1C
  TI (CC50/IC50 for collagen level): 10.29
[2]; Fig 5E
  CC50/collagen IC50: 10.07
[2]; WI26VA4, 72 h, read-out: IC50 for collagen level
  IC50: 2.02 µM
[2]; WI26VA4, read-out: Collagen IC50 (best-fit value)
  IC50: 2.02 µM
[2]; WI26VA4, read-out: Collagen, % of control (single replicates per experiment), 10 nM
  activity at 0.01 µM: 101%
[2]; WI26VA4, read-out: Collagen, % of control (single replicates per experiment), 300000 nM
  activity at 300 µM: 3.81%
[2]; WI26VA4, read-out: Collagen, % of control, average, 10 nM, average
  activity at 0.01 µM: 101%
[2]; WI26VA4, read-out: Collagen, % of control, average, 30 nM, average
  activity at 0.03 µM: 103%
[2]; WI26VA4, read-out: Collagen, % of control, average, 100 nM, average
  activity at 0.1 µM: 105%
[2]; WI26VA4, read-out: Collagen, % of control, average, 300 nM, average
  activity at 0.3 µM: 96.4%
[2]; WI26VA4, read-out: Collagen, % of control, average, 1000 nM, average
  activity at 1 µM: 78.8%
[2]; WI26VA4, read-out: Collagen, % of control, average, 3000 nM, average
  activity at 3 µM: 37.7%
[2]; WI26VA4, read-out: Collagen, % of control, average, 10000 nM, average
  activity at 10 µM: 15%
[2]; WI26VA4, read-out: Collagen, % of control, average, 30000 nM, average
  activity at 30 µM: 5.52%
[2]; WI26VA4, read-out: Collagen, % of control, average, 100000 nM, average
  activity at 100 µM: 4.05%
[2]; WI26VA4, read-out: Collagen, % of control, average, 300000 nM, average
  activity at 300 µM: 4.51%
[2]; WI26VA4, read-out: Efficacy, % of control, average, 30 nM
  activity at 0.03 µM: 102%
[2]; WI26VA4, read-out: Efficacy, % of control, average, 100 nM
  activity at 0.1 µM: 99.4%
[2]; WI26VA4, read-out: Efficacy, % of control, average, 300 nM
  activity at 0.3 µM: 107%
[2]; WI26VA4, read-out: Efficacy, % of control, average, 1000 nM
  activity at 1 µM: 82.3%
[2]; WI26VA4, read-out: Efficacy, % of control, average, 3000 nM
  activity at 3 µM: 35.4%
[2]; WI26VA4, read-out: Efficacy, % of control, average, 10000 nM
  activity at 10 µM: 11.9%
[2]; WI26VA4, read-out: Efficacy, % of control, average, 30000 nM
  activity at 30 µM: 3.71%
[2]; WI26VA4, read-out: Efficacy, % of control, average, 100000 nM
  activity at 100 µM: 2.52%
[2]; WI26VA4, read-out: Efficacy, % of control, single replicate, 30 nM
  activity at 0.03 µM: 113%
[2]; WI26VA4, read-out: Efficacy, % of control, single replicate, 100 nM
  activity at 0.1 µM: 108%
[2]; WI26VA4, read-out: Efficacy, % of control, single replicate, 300 nM
  activity at 0.3 µM: 114%
[2]; WI26VA4, read-out: Efficacy, % of control, single replicate, 3000 nM
  activity at 3 µM: 39%
[2]; WI26VA4, read-out: Efficacy, % of control, single replicate, 10000 nM
  activity at 10 µM: 10.1%
[2]; WI26VA4, read-out: Efficacy, % of control, single replicate, 30000 nM
  activity at 30 µM: 3.03%
[2]; WI26VA4, read-out: IC50 for collagen level
  IC50: 2 µM
[2]; log(inhibitor) vs. response, variable slope (four parameters)
  Collagen HillSlope (best-fit value): -1.329
[2]; [3]
  Collagen LogIC50 (best-fit value): 3.306
[2]; relative to HF, Fig 5E
  Relative (CC50)/(collagen IC50): 3.01
